Compared with `COc1ccc(C(=O)CCCCCl)cc1S(=O)(=O)Cl`, `CCN1C(=O)Cc2ccc(OC(=O)CCl)cc21` is higher in melting point: 69 to 70 °C for the first, 114 to 116 °C for the second.

First: CSc1ccc(N2CCOC2=O)cc1[N+](=O)[O-]
Second: CS(=O)c1[nH]ccc1[N+](=O)[O-] (centres undefined)
The melting point of the first is higher: 180 °C for the first, 162 to 164 °C for the second.

First: O=C(O)C(=O)c1ccc(OCCCCOc2ccc3ccccc3c2)cc1
Second: ClCCCCCOc1ccc(Br)c(CCOCc2ccccc2)c1
The melting point of the first is higher: 133 to 135 °C for the first, 54 to 55 °C for the second.

First: CCS(=O)(=O)c1cc2c(cc1OC)CCn1c3c(c(Br)c1-2)CCCCN(C(C)(C)C)C3=O
Second: CC(C)(C)OC(=O)c1ncn2c1[C@@H]1CCCN1C(=O)c1cc(Cl)ccc1-2
The melting point of the first is higher: 227 °C for the first, 157 to 158 °C for the second.

First: COc1ccc(-c2cc(=S)[nH]nc2-c2ccc(OC)c(F)c2)cc1
Second: COc1ccc(-c2ncc3n2CNc2ccccc2-3)cc1
The melting point of the first is higher: 222 to 223 °C for the first, 190 to 191 °C for the second.

Compared with `CCOC(=O)c1c(C2CCN(C)CC2)[nH]c(-c2ccc(F)c(F)c2)c1-c1ccncc1`, `Cc1c(N2CCNCC2)nn2c(-c3ccncc3)c(-c3ccc(F)cc3)nc2c1C` is lower in melting point: 262 to 265 °C for the first, 233 to 235 °C for the second.

Compared with `Cc1ccc2c(c1)C(=O)CCC21CCC(=O)NC1=O` (centres undefined), `COc1ccc(C2=NNC(=O)CC2)cc1Cl` is lower in melting point: 252 to 254 °C for the first, 194 to 195 °C for the second.

First: COC(=O)c1cccc(NC(=O)c2ccc(OC)c(Nc3cccc(C(F)(F)F)c3)c2)c1
Second: Cc1ccc(C(=O)NCC(N)=O)cc1-c1cccc2cc(Cc3cccc(C(F)(F)F)c3)sc12
The melting point of the first is lower: 128 to 129 °C for the first, 165 to 166 °C for the second.

Compared with `Cc1nc2cnccc2n1-c1ccc(C2=Nc3ccccc3N(C)C(=O)C2)cc1`, `CCN1c2ncc(CCc3ccncc3)cc2C(=O)N(C)c2ccc(C#N)nc21` is higher in melting point: 147 °C for the first, 149 to 150 °C for the second.

First: Oc1cnccc1N=CN1CCCCCC1
Second: COCCNC(N)=Nc1ccccc1N1CCCCC1
The melting point of the first is lower: 117 to 118 °C for the first, 218 to 220 °C for the second.

First: O=S1CSC(=C(c2ccc(F)cc2)c2ccc(F)cc2)SC1 (centres undefined)
Second: O=C(Nc1cccc(Cl)c1C(=O)O)c1ccc(F)cc1
The melting point of the first is lower: 155 to 156 °C for the first, 228 to 233 °C for the second.

First: Cc1nc2c(N)nc3cc(OCCC4CCN(C(=O)NC5CCCCC5)CC4)ccc3c2n1CC(C)C
Second: CCOC(=O)/C=C/c1ccc(-c2nc3c(=O)n(CC4CCCCC4)c(=O)n(CC4CCCCC4)c3[nH]2)cc1
The melting point of the first is lower: 214 to 216 °C for the first, > 300 °C for the second.

First: CC(C)C=CC1(C(F)(F)F)OCC(=O)Nc2ccc(F)c(F)c21 (centres undefined)
Second: CCOC(=O)C1=C(C(F)(F)F)Nc2n[nH]cc2C1c1ccccc1F (centres undefined)
The melting point of the first is higher: 159 to 160 °C for the first, 119 to 120 °C for the second.

`C=CCc1c(OC)cc(OC)cc1C(=O)O` and `COc1cc(C(C)(C)O)cc(Br)c1O` cannot be ordered by melting point: 109 to 111 °C for the first, 107 to 112 °C for the second.

First: CCOC(=O)c1cnn(-c2ccc(Br)cc2)c1C#N
Second: CCOC(=O)c1ccc(CO)cn1
The melting point of the first is higher: 104 to 105 °C for the first, 64 °C for the second.

First: COc1cc(Nc2c(C#N)cnc3cc(-c4ccc(CN5CCN(CCO)CC5)o4)ccc23)c(Cl)cc1Cl
Second: CN(C)CCOc1cc2c(Nc3ccc(Oc4ccccc4)cc3)c(C#N)cnc2cn1
The melting point of the first is higher: 176 to 181 °C for the first, 159 to 161 °C for the second.

First: Cc1cc(O)n(C2CCCCC2)n1
Second: CCCCC1OC(=O)c2cc(NC3CCCC3)ccc21 (centres undefined)
The melting point of the first is higher: 153 °C for the first, 79 to 81 °C for the second.

First: CC(=O)c1c(O)cccc1OCC(O)COc1ccc(Cl)cc1Cl (centres undefined)
Second: COc1c(O)ccc(C(=O)c2ccccc2)c1Cl
The melting point of the first is higher: 130 to 132 °C for the first, 123 to 125 °C for the second.

Compared with `CCOP(=O)(OCC)C(CCc1cc(C)nc2c(Br)c(-c3ccccc3)nn12)P(=O)(OCC)OCC`, `CCCCCCCCCCCCc1ccccc1C(Sc1nc(CCC)c(C(=O)O)n1C)C(=O)O` (centres undefined) is higher in melting point: 46 to 48 °C for the first, 124 to 125 °C for the second.

First: CC(=O)Oc1ccc2c(c1)cc(C(=O)O)n2C(C)=O
Second: COc1ccc(Sc2cccc(C(=O)O)c2)cc1
The melting point of the first is higher: 142 to 145 °C for the first, 121 to 123 °C for the second.

First: COc1cc(C(C)C#Cc2c(C)nc(N)nc2N)cc(OC)c1OC (centres undefined)
Second: CCCCCCCCCCCC(=O)C(C)(C)C(=O)Nc1c(OC)cc(OC)cc1OC
The melting point of the first is higher: 191 to 193 °C for the first, 92 to 94 °C for the second.

Compared with `C[C@@H](N1CCN(c2nnn(Cc3ccc(C(F)(F)F)cc3)n2)CC1)[C@](O)(Cn1cncn1)c1ccc(F)cc1F`, `FC(F)(F)COc1cc(-c2cc(C(F)(F)F)n3ncc(-c4ccncc4)c3n2)ccc1C(F)(F)F` is higher in melting point: 71 to 72 °C for the first, 251 °C for the second.

First: O=C(O)c1ccc2c(c1)NCc1ccccc1O2
Second: CC(=O)Nc1ccccc1N1CCc2cc(Cl)ccc21
The melting point of the first is higher: 251 to 252 °C for the first, 136 to 138 °C for the second.

First: COc1ccc2[nH]c(S(=O)Cc3nccc(N(C)C)c3F)nc2c1 (centres undefined)
Second: CCCNc1cc(Nc2ccc(OC)cc2)ncn1
The melting point of the first is lower: 145 to 147 °C for the first, 194 to 196 °C for the second.

`CC(OS(C)(=O)=O)c1ccc([N+](=O)[O-])cc1` (centres undefined) and `CCc1nc(Cc2ccc([N+](=O)[O-])cc2)no1` cannot be ordered by melting point: 70 °C for the first, 69 to 70 °C for the second.

First: Cc1ccc(NC(=O)c2ccccc2SSc2ccccc2C(=O)Nc2ccc(C)c(C)c2)cc1C
Second: Cc1ccc(SSc2ccc(C)cc2C(=O)Nc2ccc(S(N)(=O)=O)cc2)c(C(=O)Nc2ccc(S(N)(=O)=O)cc2)c1
The melting point of the first is lower: 224 to 227 °C for the first, 307 °C for the second.

First: Cn1c(=O)cc(-c2nc(-c3ccccc3)cs2)c2cc(C(O)c3ccc(Cl)cc3)ccc21 (centres undefined)
Second: Nc1cc(C(=O)O)cc(OCc2ccsc2)c1-c1ccccc1
The melting point of the first is higher: 192 °C for the first, 139 to 140 °C for the second.

First: CN(Cc1ccccc1)Cc1c(-c2ccc(NC(=O)C(C)(C)O)cc2)sc2c1c(=O)c(C(=O)c1ccccc1)cn2Cc1c(F)cccc1F
Second: Cc1cccc(NC(=O)NC2N=C(c3ccccc3F)c3cccc(C)c3N(CC(=O)c3ccccc3C)C2=O)c1 (centres undefined)
The melting point of the first is higher: 222 to 223 °C for the first, 190 to 196 °C for the second.

Compared with `CS(=O)(=O)c1ccc(C2=C(c3ccc(C(F)(F)F)cc3)CCC2)cc1`, `CCOC(=O)C1CCC(CS(=O)(=O)c2ccc(Oc3ccc(OC(F)(F)F)cc3)cc2)(N(O)C=O)CC1` (centres undefined) is higher in melting point: 134 to 135 °C for the first, 150 to 151 °C for the second.

First: CCCCCCCC(=O)c1ccc(CCC(CC)(CCOC(C)=O)NC(C)=O)cc1 (centres undefined)
Second: N#CCNC(=O)C1(NC(=O)c2ccc(CBr)cc2)CCCCC1
The melting point of the first is lower: 66 to 69 °C for the first, 194 to 196 °C for the second.

First: COC(=O)c1c[nH]c(Sc2ccccc2C)c1
Second: C=CCOC(=O)c1c(C)nc2[nH]c3ccccc3c2c1N
The melting point of the first is lower: 114 to 119 °C for the first, 220 to 222 °C for the second.

`Clc1cc2nc(CBr)c(CBr)nc2cc1Cl` and `O=C(NCC12CC3CC(CC(C3)C1)C2)c1cc(-c2ccc(Cl)c(C(=O)O)n2)ccc1Cl` cannot be ordered by melting point: 154 to 156 °C for the first, 154 to 159 °C for the second.

Compared with `CCOc1ccc(-c2ccc3c(c2)C=C(C(=O)Nc2ccc(CN(C)C4CCOCC4)cc2)CCS3=O)cc1` (centres undefined), `COc1ccc2c(c1)N(Cc1ccccc1)C(=O)[C@H]1CCC[C@H]1N2C(=O)CN1C(=O)c2ccccc2C1=O` (relative stereo) is higher in melting point: 192 to 195 °C for the first, 244 to 245 °C for the second.

First: CN1C(=O)C(C)(C)N=C(c2ccccc2F)c2cc([N+](=O)[O-])cc(Cl)c21
Second: CC(C)c1cccc(C(C)C)c1N1C(=O)c2cccc3c(C#N)ccc(c23)C1=O
The melting point of the first is lower: 237 to 238 °C for the first, 291 °C for the second.

First: Cc1c(Br)c2c(c(C)c1NC(=O)OC(C)(C)C)CC(C)O2 (centres undefined)
Second: CC(C)(C)C(=O)c1c[nH]c2ncc(-c3ccc(N4CCN(S(C)(=O)=O)CC4)cc3)nc12
The melting point of the first is lower: 115 to 116 °C for the first, 288 to 290 °C for the second.

First: CC(=O)SCC(=O)NC(=O)Cc1ccccc1
Second: COc1ccc(C(=O)Cc2ccccc2)c([N+](=O)[O-])c1O
The melting point of the first is lower: 153 to 155 °C for the first, 176 to 177 °C for the second.

First: Cn1cc(C(=O)O)c2nc3ncccc3cc2c1=O
Second: CC=Cc1nc2ccc(C)cc2c(=O)[nH]1
The melting point of the first is higher: > 300 °C for the first, 232 to 233 °C for the second.

First: CC1Cc2cc3c(cc2C(c2ccc([N+](=O)[O-])cc2)=NN1C(N)=S)OCO3 (centres undefined)
Second: N#Cc1coc2ccc3ccc(O)cc3c2c1=O
The melting point of the first is lower: 213 to 215 °C for the first, 289 to 292 °C for the second.

First: Cc1oc(-c2ccccc2)nc1COc1cccc(CON=C(CCC(=O)O)c2ccccc2)c1
Second: O=C(O)CCCC=CCCc1ccc(OCc2ccccc2)cc1
The melting point of the first is higher: 108 to 109 °C for the first, 63 to 65 °C for the second.

First: O=C(O)C(=O)NCCCCCC1CCSS1 (centres undefined)
Second: O=C(COc1ccc(Cl)cc1)N1CCc2occc2C1CN1CCC(O)C1 (centres undefined)
The melting point of the first is higher: 75 to 79 °C for the first, 43 to 45 °C for the second.

First: CC(C)(C)c1cc(-c2nnc(N)s2)cc(C(C)(C)C)c1O
Second: COc1ccccc1Sc1c(NS(=O)(=O)c2ccc(C(C)(C)C)cc2)nc(CO)nc1OC
The melting point of the first is higher: 261 °C for the first, 152 °C for the second.

First: CN(Cc1cccc2c1C(=O)N(C1CCC(=O)NC1=O)C2=O)C(=O)Nc1ccc(Cl)c(Cl)c1 (centres undefined)
Second: COc1ccc(C2CCN(C)CC2)cc1Nc1ncc2ccc(-c3ccccc3N(C)S(C)(=O)=O)n2n1
The melting point of the first is higher: 255 to 257 °C for the first, 93 to 99 °C for the second.

First: Cc1nc2c(OCCNCc3ccccc3)cccc2[nH]1
Second: C[C@H](Cc1ccc2c(c1)OC(C(=O)O)(C(=O)OCCc1ccccc1)O2)NC[C@H](O)c1cccc(Cl)c1 (some centres undefined)
The melting point of the first is higher: > 250 °C for the first, 75 to 82 °C for the second.

Compared with `CCOC(=O)c1cn(-c2ccc(Cl)cn2)cn1`, `O=C(C=C1CCCN1)c1ccc(Cl)cc1` is lower in melting point: 163 to 164 °C for the first, 146 to 147 °C for the second.

Compared with `COc1cc(OC)cc(C2CCCCC2=O)c1` (centres undefined), `COc1ccc(N2CCN(CCC(O)COc3ccccc3)CC2)cc1` (centres undefined) is higher in melting point: 61 to 62 °C for the first, 95 to 97 °C for the second.

Going from `CC#CCOc1ccc(SC(C(=O)NO)C(C)C)cc1` (centres undefined) to `O=C(NC(Cc1ccc([N+](=O)[O-])cc1)C(=O)C(F)(F)F)c1ccccc1` (centres undefined), the melting point rises from 128 °C to 175 °C.

First: Cn1nc(-n2ncc(C(N)=S)c2Br)c(Cl)c1OC(F)F
Second: CC=CCOc1c(I)cc(C(C)O)nc1Cl (centres undefined)
The melting point of the first is higher: 175 °C for the first, 61 to 62.5 °C for the second.

First: O=C(NCCO)c1ccnc(-c2cccc3cc(Cc4cccc(C(F)(F)F)c4)sc23)c1F
Second: ON=Cc1ccc2c(c1)ncn2-c1cccc(-c2ccncn2)c1
The melting point of the first is lower: 110 to 111 °C for the first, 220 to 221 °C for the second.

First: NC(=O)c1ccc(F)c2c1OCC(N)C2 (centres undefined)
Second: Cc1cc(C2=C(C=O)C(C)(C)CC(C)(C)C2)ccc1F
The melting point of the first is higher: 128 °C for the first, 50.5 to 51.5 °C for the second.

Molecule `O=C(CCC(=O)N1CCC(c2ccc(Cl)cc2)CC1)c1ccc2c(c1)CCN(CC1CCCO1)CC2` (centres undefined) has a melting point of 123 to 125 °C.

Reference: a melting point compilation (Tetko et al.; mined from patent text by program, amines drawn as free bases though some values may be those of a salt)
